These results are taken from patent US10213451B2, “Methods and compounds for modulating the secretion or expression of adhesion proteins or angiopoietins of cells” (PACIFIC ARROW LIMITED, priority 2004, dated 2019).

“And” between values parts separate entries of the source, which are not always exact repeats. Equal values may be shown once. Read-outs that look alike come from different tables or passages of the source.

For series [1], the system named is Fibronectin secretion from ES2 cells. As to the kind of experiment: Fibronectin secretion (Western blot), ES2 cells. It counts as cell-based, human. For orientation: In western blotting, separated proteins are transferred to a membrane and probed.
Another series concerns ES2(ovarian) cells. As to the kind of experiment: MTT assay ES2. The format is cell-based, human. The note with it: for viable cells by MTT assay: ES2, 10 ug/ml.
Where [2] appears, read: ES2 cells, 10 ug/ml, listed as xanifolia-Y.
Setting [3] is: Homo sapiens, ES-2, ES2 cells, read-out: IC50.

By IC50 is commonly meant the midpoint of a concentration-inhibition curve. In the case of `C/C=C(/C)C(=O)O[C@H]1[C@H](OC(=O)/C(C)=C\C)[C@@]2(CO)C(CC1(C)C)C1=CCC3[C@@]4(C)CC[C@H](O[C@@H]5OC(C(=O)O)[C@@H](O)C(O[C@@H]6O[C@@H](CO)C(O)C6O)C5O[C@@H]5OC(CO)[C@H](O)C(O)C5O)C(C)(C)C4CC[C@@]3(C)[C@]1(C)[C@@H](O)[C@H]2O` (stereo partly drawn) [Xanifolia-Y, 3-O-[β-D-galactopyranosyl (1→2)]-α-L-arabinofuranosy (1→3)-β-D-glucuronopyranosyl-21,22-O-diangeloyl-3β, 15α, 16α, 21β, 22α, 28-hexahydroxyolean-12-ene], the “secretion of Fibronectin to medium over time” value in series [1] (ES2 cells, 10 ug/ml, 1 to 24 hour) was “no or only minimally secretion of Fibronectin”. In addition, the “reduction of Fibronectin secretion” value is 40% in series [1] (ES2 cells, 10 ug/ml, 18 hours); 31% and 30-40% and 38% and 46% in series [1] (ES2 cells, 10 ug/ml, 24 hours, listed as Y); 46% in series [1] (ES2 cells, 10 ug/ml, 24 hours, listed as xanifolia-Y). The “reduction of FN secretion at 24 hours after removal of drug” value in series [1] (ES2 cells, 10 ug/ml, drug removed at 4 or 8 hours) is listed as “over 50%”. Besides, the “Fibronectin secreted / FN band intensity, % of DMSO control” value in series [1] (ES2 cells, 10 ug/ml, listed as Y) is 62% and 51% and 54%; in series [1] (setting [2]), 54%. In addition, the “% inhibition of Fibronectin secretion” value in series [1] (ES2 cells, 10 ug/ml, listed as Y3) worked out at 47%; in series [1] (setting [2]) it was 49%. Besides, in series [1] (ES2 cells, after drug-treatment), the “earliest time at which inhibition of Fibronectin was observed” value was 8 h. Further, the “change in Fibronectin secretion” value in series [1] (ES2 cells, first 7 hours of treatment) is “not noticeable”. In the series on ES2(ovarian) cells (ES2, 10 ug/ml (F13)), the “growth of cells compared to the DMSO control (MTT)” value worked out at 89%. Moreover, the “viable cells by MTT assay” value is 93% with ES2(ovarian) cells (7 hours); “Over 95%” in the series with ES2(ovarian) cells (18 hours); 85% and 87% in the series on ES2(ovarian) cells (24 hours). Also, the IC50 in the series with ES2(ovarian) cells (ES2 cells) was 4.4 mg/L; with ES2(ovarian) cells (Homo sapiens, ES2, Clear cell, read-out: IC50), 4.4 µM; with ES2(ovarian) cells (Homo sapiens, ES-2, ES2 cells, combined with Paclitaxel, read-out: IC50 value for Xanifolia-Y when both drugs were used), 2.5 mg/L; with ES2(ovarian) cells (setting [3]) it was 5 mg/L.
Broadly, the inhibition is how much of the control response was suppressed. For the molecule `C/C=C(/C)C(=O)O[C@H]1[C@H](OC(=O)/C(C)=C\C)[C@@]2(CO)C(CC1(C)C)C1=CCC3[C@@]4(C)CC[C@H](O)C(C)(C)C4CC[C@@]3(C)[C@]1(C)[C@@H](O)[C@H]2O` (some centres unmarked) [ACH-Y], the “% inhibition of Fibronectin secretion” value in series [1] (ES2 cells, 10 ug/ml) is listed as “less (or not observed)”. Moreover, the “Fibronectin secreted / FN band intensity, % of DMSO control” value in series [1] (ES2 cells, 20 ug/ml) was 53%-75%. Further, in series [1] (Homo sapiens, ES-2, ES2 cells, 20 ug/ml), the inhibition at 20 µg/mL was 48%. Moreover, in the series with ES2(ovarian) cells (setting [3]), the IC50 came out at 20 mg/L.
